Results reported in patent US20240238211A1, “ISOQUINOLINE-STABILIZED LIPID NANOPARTICLE FORMULATIONS” (ModernaTX, Inc., priority 2021, published 2024).

What was measured:
mRNA [1] = test: Long-term stability of mRNA with 2 mM palmatine chloride (intact mRNA by chromatography); type: physicochemical; details: for degradation rate (% per month) / greater purity than unstabilized composition: 0.20 mg/ml mRNA + 2 mM palmatine chloride
Procedure: The degradation rate (% per month) of the stabilized composition was 1.8% as compared to […] for the unstabilized composition. […] The degradation rate (% per month) of the stabilized composition was 8.6% as compared to 38% for the unstabilized composition. […] With reference to FIGS. 10A and 10B, studies were performed to determine the long-term effect of palmatine chloride on thermal stability of mRNA. Aliquots of mRNA solution were mixed with 2 mM palmatine chloride and were incubated for the indicated periods of time at 5° C. (FIG. 10A) and 25° C. (FIG. 10B). The percentage of remaining intact mRNA was quantified using chromatography. The dashed line traces represent mRNA-only samples. The solid line traces represent mRNA samples containing palmatine chloride.

mRNA [2] = test: mRNA purity of three month, 25° C. stability samples of mRNA LNPs; type: physicochemical; details: mRNA LNPs containing palmatine at varying concentrations, 3 months at 25° C.
mRNA [3] = test: Differential scanning microcalorimetry of mRNA with palmatine chloride; type: physicochemical; details: increasing palmatine chloride up to 500 μM, 20 mM Tris, 8% sucrose
Procedure: With reference to FIG. 9, differential scanning microcalorimetry thermograms were obtained of lipid nanoparticles encapsulating mRNA and containing increasing concentrations of palmatine chloride (left-most trace—free mRNA, right-most trace—500 μM palmatine). The experiments were performed in 20 mM Tris, 8% sucrose buffer.

mRNA [4] = test: Stability of mRNA LNPs with DTPA and palmatine chloride (main peak purity); type: physicochemical; details: 0.20 mg/ml mRNA LNP, 1 mM DTPA, palmatine chloride 0.5, 1 or 2 mM, up to 5 months
Procedure: With reference to FIG. 12, studies were performed to determine the stability of lipid nanoparticles encapsulating mRNA containing the chelator DTPA and varying concentrations of palmatine chloride. 0.20 mg/ml samples of lipid nanoparticles encapsulating mRNA and 1 mM DTPA were incubated with palmatine chloride (0 mM, 0.5 mM, 1 mM, or 2 mM). Measurements of main peak (mRNA) purity were taken at time points up to 5 months.

mRNA [5] = test: mRNA stabilization: main peak purity by RP-HPLC (Example 1); type: physicochemical; details: LNP mRNA 0.2 mg/mL in buffer, T0, 3-day, 7-day (berberine, palmatine); buffered mRNA, 5 days at 50° C. (coralyne, palmatine)
Excerpt: mRNA purity can be determined by reverse phase high-performance liquid chromatography (RP-HPLC) size based separation. This method can be used to assess mRNA integrity by a length-based gradient RP separation and UV detection of RNA at 260 nm. As used herein “main peak” or “main peak purity” refers to the RP-HPLC signal detected from mRNA that corresponds to the full size mRNA molecule loaded within a given LNP formulation. mRNA purity can also be assessed by fragmentation analysis. Fragmentation analysis (FA) is a method by which nucleic acid (e.g., mRNA) fragments can be analyzed by capillary electrophoresis. Fragmentation analysis involves sizing and quantifying nucleic acids (e.g., mRNA), for example by using an intercalating dye coupled with an LED light source. Such analysis may be completed, for example, with a Fragment Analyzer from Advanced Analytical Technologies, Inc. Berberine USP was combined with an LNP containing mRNA (0.2 mg/ml in buffer) in amounts corresponding to the concentrations reported in FIG. 2. Main peak purity was measured by RP-HPLC at T0, 3-day, and 7-day. See, FIG. 2. Palmatine USP was combined with an LNP containing mRNA (0.2 mg/mL in buffer) in amounts corresponding to the concentrations reported in FIG. 3. Main peak purity was measured by RP-HPLC at T0, 3-day, and 7-day. […] After storage for 5 days at 50° C., main peak purity was measured by RP-HPLC. […]

[6] = test system: lipid nanoparticles encapsulating mRNA; test: Permeation of palmatine chloride into lipid nanoparticles encapsulating mRNA; type: physicochemical; details: 2 mM palmatine, 1 to 14 days, 5, 15, 25 or 40° C., 20 mM Tris, 8% sucrose
Procedure: Formulations contain 0.20 mg/ml mRNA DP with 2 mM palmatine chloride. With reference to FIG. 11, studies were performed to determine the effect of time and temperature on diffusion (permeation) of palmatine chloride into lipid nanoparticles encapsulating mRNA. The samples were prepared in 20 mM Tris, 8% sucrose. The lipid nanoparticles encapsulating mRNA were incubated in 2 mM palmatine for 1 to 14 days. Free palmatine was separated from the lipid nanoparticles by gel filtration on 40 kD Zeba cartridges, whereas the concentration of lipid nanoparticle-permeated palmatine was determined by reverse phase chromatography using a Luna C18 column.

[7] = Immunogenicity of mRNA LNP stability samples in vivo (serum antibody titers); parameters: species or system BALB/c mice; details: three month, 25° C. stability samples of mRNA LNPs containing palmatine, mice
Procedure: Experiments were performed to (i) evaluate immunogenicity of mRNA LNPs containing palmatine or berberine at varying concentrations as compared to non-stabilized control mRNA LNPs. BALB/c mice (N=210) are injected with a mRNA LNP stabilized with varying concentrations of palmatine or berberine (e.g., 0, 0.5 mM, 0.75 mM, 1 mM, 2 mM, 5 mM, or 10 mM). Various dose levels (e.g., 2.5 ug/mg; 1.25 ug/mg; or 0.63 ug/mg) are injected into mice intramuscularly on day 1. On day 21, immunogenicity is assessed via serum antibody titers against protein encoded by the mRNA. The mice are given a booster injection on day 22, and then immunogenicity is again assessed on day 36. Three month, 25° C. stability samples from mRNA LNPs containing palmatine at varying concentrations, and non-stabilized mRNA LNPs (no palmatine) were tested in vivo as continued immunogenicity monitoring on stability. […] The drop in antibody titers is correlated to a significant drop in mRNA purity.

mRNA [8] = test: mRNA LNP stability as a function of pH and temperature (main peak purity); type: physicochemical; details: 1 mM excipient, pH 5.5 to 7.4, 0.8 mg/mL, 1 week at 40° C. or 2 weeks at 25° C.
Procedure: The stability of mRNA LNP formulations was evaluated as a function of pH and temperature in the presence and absence of berberine and palmatine. 1 mM excipients were added in pH conditions 5.5 to 7.4 to evaluate pH impact on mRNA stabilization in mRNA LNPs. For pH between 5.5-6.5, 7 mM citrate and 8% sucrose buffer was used. For pH of 7.4, tris/sucrose buffer was used. The LNP formulations were incubated at 0.8 mg/mL for 1 week at 40° C. or 2 weeks at 25° C., and then main peak purity was measured. Incubation for 1 week at 40° C. or 2 weeks at 25° C. show similar trends. […] See, FIG. 7.

mRNA LNPs = test: Dynamic light scattering of mRNA LNPs after 40° C. stress; type: physicochemical; details: 1 mM berberine, 40° C. stress for 1 week
Excerpt: Particle size (e.g., particle diameter) can be determined by Dynamic Light Scattering (DLS). DLS measures a hydrodynamic diameter. Smaller particles diffuse more quickly, leading to faster fluctuations in the scattering intensity and shorter decay times for the autocorrelation function. Larger particles diffuse more slowly, leading to slower fluctuations in the scattering intensity and longer decay times in the autocorrelation function. Dynamic light scattering is sensitive to perturbation to the physical integrity of mRNA LNPs. mRNA LNPs were formulated with 1 mM berberine or without berberine and then exposed to 40° C. temperature stress for 1 week. As a control, mRNA LNPs were formulated without berberine. The size distribution of the mRNA LNPs was then analyzed by dynamic light scattering. […] See, FIG. 6.

mRNA [9] = test: HPLC purity of mRNA stressed at 40° C. for 3 weeks; type: physicochemical; details: ~1 mM berberine
Procedure: HPLC analyses were performed to evaluate the purity of mRNA stressed at elevated temperature (40° C.) for 3 weeks. In the absence of stabilizer, less than 5% of the mRNA (main peak 5.857 min) remained intact. By contrast, in the presence of ˜1 mM berberine, over 22% of the mRNA (main peak 5.857 min) remained intact. […] See, FIG. 5.

mRNA [10] = test: mRNA LNP stability at pH 7.4 as a function of berberine concentration (main peak purity); type: physicochemical; details: 0-1.5 mM berberine, pH 7.4 tris/sucrose, ~0.2 mg/mL, 1 week at 40° C. or 2 weeks at 25° C.
Procedure: The stability of mRNA LNP formulations at pH of 7.4 was then further evaluated as a function of berberine concentration. A series of mRNA LNPs were formulated with various levels of berberine (0, 0.2, 0.4, 0.6, 0.8, 1.0, 1.25, 1.5 mM) and stressed in 7.4 pH tris/sucrose buffer at ˜0.2 mg/mL for either 1 week at 40° C. or 2 weeks at 25° C., and then main peak purity was measured. […] In this study, maximal effect occurs in the 1-1.25 mM berberine range. See, FIG. 8.

SMILES	degradation rate (% per month) (mRNA [1]; 5° C. over twelve months)	greater purity than unstabilized composition (mRNA [1]; 5° C., after ten months)	degradation rate (% per month) (mRNA [1]; 25° C. over six months)	greater purity than unstabilized composition (mRNA [1]; 25° C., after six months)	mRNA thermal stability in the presence of the compound (mRNA [1]; 2 mM palmatine chloride, 5° C. and 25° C.)	mRNA purity versus non-stabilized samples (mRNA [2])	effect of binding on thermal stability of mRNA (DSC thermograms) (mRNA [3])	mRNA stability (main peak purity) (mRNA [4])	effect on mRNA (main peak purity by RP-HPLC) (mRNA [5])	permeated concentration in lipid nanoparticles as a function of temperature [6]	rate of permeation into lipid nanoparticles as a function of temperature [6]	antibody titers versus −70° C. non-stabilized control [7]	stabilizing effect across pH range (main peak purity) (mRNA [8])	effect on hydrodynamic characteristics of the lipid nanoparticle (size distribution) (mRNA LNPs)	mRNA remaining intact (main peak) (mRNA [9])	dependence of stabilizing effect on concentration (mRNA [10])
COc1cc2c(cc1OC)-c1cc3ccc(OC)c(OC)c3c[n+]1CC2 [palmatine]	1.8 % per month	20%	8.6 % per month	35%	significantly improved	higher mRNA purity than the non-stabilized	increased thermal stability of mRNA	significantly improved	stabilizing effect	increased permeated palmatine concentration	increased rate of permeation	more similar antibody titers to the −70 °C control arm	strong stabilizing effects			
COc1ccc2cc3[n+](cc2c1OC)CCc1cc2c(cc1-3)OCO2 [berberine]									stabilizing effect				strong stabilizing effects	no effect on the hydrodynamic characteristics of the lipid nanoparticle	over 22%	concentration-dependent manner
